Starred links: 1 amine or outer side, 2 acyl side, 3 side chain; linkers in the order of their positions; H or OH if unused. Non-standard residues stand in square brackets, D forms with d. Residues, ends and D or L forms follow the SMILES beside them. Groups on a side chain read outwards from the residue. *: point of attachment. C20 diacid = O=C(O)CCCCCCCCCCCCCCCCCCC(=O)*; αMePhe(2-F) = C[C@](N)(Cc1ccccc1F)C(=O)O; γGlu = O=C(O)[C@H](CCC(=O)[*:2])N[*:1]; αMeF = C[C@](N)(Cc1ccccc1)C(=O)O; αMeL = CC(C)C[C@](C)(N)C(=O)O; AEEA = NCCOCCOCC(=O)O; Ac3c = NC1(C(=O)O)CC1; Aib = CC(C)(N)C(=O)O
Legend:
[1] = target: T1, Human GIP R (Homo sapiens, UniProt P48546); assay: cAMP (HTRF) activity in CHO cells stably overexpressing GIP receptor; assay type: cell-based; conditions: for Human GIP R Rel. A (Relative Activity): EC50 of human GIP / EC50 of compound
T1 construct: expressed in transfected cells; host or cells: CHO
T1 sequence (P48546 22-466): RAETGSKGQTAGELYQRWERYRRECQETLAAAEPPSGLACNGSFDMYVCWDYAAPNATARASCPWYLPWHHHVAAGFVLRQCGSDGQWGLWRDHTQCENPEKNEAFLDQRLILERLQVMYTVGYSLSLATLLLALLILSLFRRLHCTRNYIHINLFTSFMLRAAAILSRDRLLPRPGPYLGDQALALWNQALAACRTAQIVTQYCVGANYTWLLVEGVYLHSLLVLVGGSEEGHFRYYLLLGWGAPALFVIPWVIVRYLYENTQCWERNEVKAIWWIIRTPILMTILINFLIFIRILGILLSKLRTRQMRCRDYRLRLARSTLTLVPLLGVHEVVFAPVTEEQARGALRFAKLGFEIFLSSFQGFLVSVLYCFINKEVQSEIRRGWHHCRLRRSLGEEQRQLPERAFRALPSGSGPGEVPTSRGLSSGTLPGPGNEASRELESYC
How it was run: (§1)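 Cells resuspended in HBSS are incubated with compound for 60 min at room temperature, then with HTRF cAMP detection reagent for a further 60 min. Concentration-response fits give agonist EC50 values in nM.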

[2] = target: T2, Human GCG R (Homo sapiens, UniProt P47871); assay: cAMP (HTRF) activity in HEK-293 cells stably overexpressing human GCG receptor; assay type: cell-based; conditions: EC50 of human GCG / EC50 of compound
T2 construct: expressed in transfected cells; host or cells: HEK-293
How it was run: as §1

[3] = test system: RIN-m5F cells; assay type: cell-based, rat; conditions: for Rel. A (Relative Activity) on RIN-m5F: relative to GLP-1(7-37)
How it was run: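 After 60 min room-temperature exposure of HBSS-suspended RIN-m5F cells to compound and another 60 min with detection reagent, cellular cAMP level was determined.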

[4] = test system: 3T3-L1 adipocytes; conditions: for Rel. A (Relative Activity) on 3T3-L1 adipocyte: relative to GIP
How it was run: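 Compound-induced cAMP was measured in mature 3T3-L1 adipocytes after 60 min room-temperature exposure to a 10-concentration, 3-fold dilution series, followed by 60 min with kit detection reagent and curve fitting. Differentiation used IBMX/dexamethasone/insulin (5 days), insulin with 10 uM rosiglitazone (3 days), then 2–3 days in 10% FBS.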

[5] = test system: human primary liver cells; assay type: cell-based; conditions: for Rel. A (Relative Activity) on human primary liver cells: relative to GCG
How it was run: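 cAMP readout after 60 min with detection reagent, following 60 min room-temperature compound incubation. Cells were primary human liver cells thawed at 37° C and resuspended in HBSS.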

[6] = test system: C57 BL/6J DIO mice; assay: In vivo pharmacodynamics in high-fat diet induced obesity (DIO) mice; parameters: species or system mouse; conditions: Table 9-1; 3 nmol/kg; Day 15; Mean±SEM
Text: High-fat diet induced obesity (DIO) mice have characteristics such as obesity, elevated blood sugar, insulin resistance, and lipid abnormalities, all of which are very significant metabolic syndromes similar to a human body. The effects of the compounds of the present application on body weight, food intake, blood sugar, and lipids in C57 BL/6J DIO mice were studied.
Obesity was induced in mice by feeding with a high-fat diet (60 kcal % of calories from fat). […] After grouping, one animal was raised in each cage for one week, during which each of the animals was injected subcutaneously (S.C.) with a solvent (1×PBS, 5 ml/kg) to pre-adapt the experimental operation process.
After the preparation of animals, vehicle control or compounds were administered to groups of animals by subcutaneous injection, in which the compounds were dissolved in 1×PBS, the dosage was 5 ml/kg, and the administration operation was started at 9:00 am and conducted once every three days (Q3D) for 15 days. Throughout the entire experimental study, animal weight and food intake were measured daily before administration, and compared with initial weight and food intake of the same animal before administration to calculate a percentage change in animal weight (%) and cumulative food intake, so as to evaluate the impact of compounds on changes in body weight and food intake.
At the end point of the experiment (Day 15), the body weight of the mice was measured, and then fasting blood glucose was measured by taking blood from the tail tip of broken tail without anesthesia. After the blood collection, the animals were anesthetized with CO2 and euthanized. Then, blood was taken from the heart and plasma was separated by centrifugation. The plasma was used to measure total cholesterol (TC), low-density lipoprotein cholesterol (LDL-C), triglycerides (TG), and blood insulin content. The liver was separated for homogenization, and then centrifuged to obtain the supernatant for determining triglyceride content in the liver.
All results were expressed in Mean±SEM, and the results were analyzed by one-way ANOVA using GraphPad Prism 5 software, followed by Dunnett's post hoc test compared to the Vehicle control group. The difference at the p<0.05 level was considered statistically significant.

[7] = target: Human GLP-1R (Homo sapiens, UniProt P43220); assay: cAMP (HTRF) activity in HEK-293 cells stably overexpressing human GLP-1 receptor; assay type: cell-based; parameters: expressed in transfected cells; host or cells: HEK-293; conditions: for Human GLP-1R Rel. A (Relative Activity): EC50 of human GLP-1 (7-37) / EC50 of compound; for EC50: stable transfected cell cAMP activity, at least 3 independent tests
How it was run: as §1

T2 sequence (P47871 26-477): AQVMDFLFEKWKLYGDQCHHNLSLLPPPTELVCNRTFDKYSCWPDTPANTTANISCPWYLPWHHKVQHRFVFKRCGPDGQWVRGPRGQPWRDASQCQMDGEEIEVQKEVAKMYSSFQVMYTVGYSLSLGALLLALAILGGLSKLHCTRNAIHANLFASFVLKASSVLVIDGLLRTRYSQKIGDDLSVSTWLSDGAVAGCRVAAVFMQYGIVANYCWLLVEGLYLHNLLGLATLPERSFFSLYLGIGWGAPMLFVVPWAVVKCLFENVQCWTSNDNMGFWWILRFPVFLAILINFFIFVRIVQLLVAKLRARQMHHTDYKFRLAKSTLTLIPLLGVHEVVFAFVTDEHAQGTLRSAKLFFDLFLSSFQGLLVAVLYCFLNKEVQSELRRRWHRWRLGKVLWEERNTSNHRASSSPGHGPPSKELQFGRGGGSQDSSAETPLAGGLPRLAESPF
Chain of Human GLP-1R (P43220 24-463): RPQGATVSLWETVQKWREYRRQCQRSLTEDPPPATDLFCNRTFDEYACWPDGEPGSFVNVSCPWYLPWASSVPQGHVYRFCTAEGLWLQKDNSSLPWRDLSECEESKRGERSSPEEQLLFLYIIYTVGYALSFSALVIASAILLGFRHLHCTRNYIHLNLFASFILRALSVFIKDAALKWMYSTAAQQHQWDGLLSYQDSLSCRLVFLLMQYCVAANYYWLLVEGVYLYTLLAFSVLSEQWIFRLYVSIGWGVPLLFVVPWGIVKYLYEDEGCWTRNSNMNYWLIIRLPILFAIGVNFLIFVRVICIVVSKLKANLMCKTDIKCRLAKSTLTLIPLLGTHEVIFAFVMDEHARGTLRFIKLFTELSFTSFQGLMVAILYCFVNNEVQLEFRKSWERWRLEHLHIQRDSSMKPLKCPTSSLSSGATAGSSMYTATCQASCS

Structure (SMILES) | Human GIP R Rel. A (Relative Activity) [1] [%] | EC50 ([1]; stable transfected cell cAMP activity, at least 3 independent tests) [nM] | Human GCG R Rel. A (Relative Activity) [2] [%] | EC50 [3] [nM] | Rel. A (Relative Activity) on RIN-m5F [3] [%] | EC50 [4] [nM] | Rel. A (Relative Activity) on 3T3-L1 adipocyte [4] [%] | EC50 [5] [nM] | Rel. A (Relative Activity) on human primary liver cells [5] [%] | Liver TG [6] [mg] | Human GLP-1R Rel. A (Relative Activity) [7] [%] | EC50 [7] [nM]
CC[C@H](C)[C@H](NC(=O)[C@H](Cc1ccccc1)NC(=O)[C@H](C)NC(=O)C(C)(C)NC(=O)[C@H](CCC(N)=O)NC(=O)[C@H](C)NC(=O)[C@H](CCCCNC(=O)COCCOCCNC(=O)COCCOCCNC(=O)CC[C@H](NC(=O)CCCCCCCCCCCCCCCCCCC(=O)O)C(=O)O)NC(=O)[C@H](CCCCN)NC(=O)[C@H](CC(=O)O)NC(=O)[C@H](CC(C)C)NC(=O)[C@H](Cc1ccccc1)NC(=O)[C@@H](NC(=O)[C@H](CO)NC(=O)[C@H](Cc1ccc(O)cc1)NC(=O)[C@H](CC(=O)O)NC(=O)[C@H](CO)NC(=O)[C@@H](NC(=O)[C@](C)(Cc1ccccc1F)NC(=O)[C@@H](NC(=O)CNC(=O)[C@H](CCC(N)=O)NC(=O)C(C)(C)NC(=O)[C@@H](N)Cc1ccc(O)cc1)[C@@H](C)O)[C@@H](C)O)[C@@H](C)CC)C(=O)N[C@@H](CCC(=O)O)C(=O)N[C@@H](Cc1ccccc1)C(=O)N[C@@H](CC(C)C)C(=O)N[C@@H](CC(C)C)C(=O)N[C@@H](CCC(=O)O)C(=O)N[C@@H](CO)C(=O)N[C@@H](Cc1c[nH]cn1)C(=O)N1CCC[C@H]1C(=O)N[C@@H](CO)C(=O)N[C@@H](CO)C(=O)NCC(=O)N[C@@H](C)C(=O)N1CCC[C@H]1C(=O)N1CCC[C@H]1C(=O)NC1(C(=O)N[C@@H](CO)C(N)=O)CC1 [Compound 10] (H-Y[Aib]QGT[αMePhe(2-F)]TSDYSIFLDKK([AEEA-AEEA-γGlu-C20 diacid])AQ[Aib]AFIEFLLESHPSSGAPP[Ac3c]S-NH2) | 861.90 | 0.021 | 75.00 | 0.274 | 376.64 | 6.16 | 61.76 | 5.19 | 75.00 | 81.6 ± 8.50 | 93.62 | 
CC[C@H](C)[C@H](NC(=O)[C@H](Cc1ccccc1)NC(=O)[C@H](C)NC(=O)C(C)(C)NC(=O)[C@H](CCC(N)=O)NC(=O)[C@H](C)NC(=O)[C@H](CCCCNC(=O)COCCOCCNC(=O)COCCOCCNC(=O)CC[C@H](NC(=O)CCCCCCCCCCCCCCCCCCC(=O)O)C(=O)O)NC(=O)[C@H](CCCCN)NC(=O)[C@H](CC(=O)O)NC(=O)[C@H](CC(C)C)NC(=O)[C@H](CC(C)C)NC(=O)[C@@H](NC(=O)[C@H](CO)NC(=O)[C@H](Cc1ccc(O)cc1)NC(=O)[C@H](CC(=O)O)NC(=O)[C@H](CO)NC(=O)[C@@H](NC(=O)[C@](C)(Cc1ccccc1)NC(=O)[C@@H](NC(=O)CNC(=O)[C@H](CCC(N)=O)NC(=O)C(C)(C)NC(=O)[C@@H](N)Cc1ccc(O)cc1)[C@@H](C)O)[C@@H](C)O)[C@@H](C)CC)C(=O)N[C@@H](CCC(=O)O)C(=O)N[C@@H](Cc1ccccc1)C(=O)N[C@@H](CC(C)C)C(=O)N[C@@H](CC(C)C)C(=O)N[C@@H](CCC(=O)O)C(=O)N[C@@H](CO)C(=O)N[C@@H](Cc1c[nH]cn1)C(=O)N1CCC[C@H]1C(=O)N[C@@H](CO)C(=O)N[C@@H](CO)C(=O)NC(C)(C)C(=O)N[C@@H](Cc1c[nH]cn1)C(=O)N1CCC[C@H]1C(=O)N1CCC[C@H]1C(=O)NC1(C(=O)N[C@@H](CO)C(N)=O)CC1 [Compound 42] (H-Y[Aib]QGT[αMeF]TSDYSILLDKK([AEEA-AEEA-γGlu-C20 diacid])AQ[Aib]AFIEFLLESHPSS[Aib]HPP[Ac3c]S-NH2; N-terminus assumed) | 258.57 |  | 11.52 | 0.359 | 287.47 | 2.73 | 139.17 | 1.36 | 285.26 |  | 488.89 | 0.009
CC[C@H](C)[C@H](NC(=O)[C@H](Cc1ccccc1)NC(=O)[C@H](C)NC(=O)C(C)(C)NC(=O)[C@H](CCC(N)=O)NC(=O)[C@H](C)NC(=O)[C@H](CCCCNC(=O)COCCOCCNC(=O)COCCOCCNC(=O)CC[C@H](NC(=O)CCCCCCCCCCCCCCCCCCC(=O)O)C(=O)O)NC(=O)[C@H](CCCCN)NC(=O)[C@H](CC(=O)O)NC(=O)[C@H](CC(C)C)NC(=O)[C@](C)(CC(C)C)NC(=O)[C@@H](NC(=O)[C@H](CO)NC(=O)[C@H](Cc1ccc(O)cc1)NC(=O)[C@H](CC(=O)O)NC(=O)[C@H](CO)NC(=O)[C@@H](NC(=O)[C@](C)(Cc1ccccc1F)NC(=O)[C@@H](NC(=O)CNC(=O)[C@H](CCC(N)=O)NC(=O)C(C)(C)NC(=O)[C@@H](N)Cc1ccc(O)cc1)[C@@H](C)O)[C@@H](C)O)[C@@H](C)CC)C(=O)N[C@@H](CCC(=O)O)C(=O)N[C@@H](Cc1ccc(O)cc1)C(=O)N[C@@H](CC(C)C)C(=O)N[C@@H](CC(C)C)C(=O)N[C@@H](CCC(=O)O)C(=O)N[C@@H](CO)C(=O)N[C@@H](Cc1c[nH]cn1)C(=O)N1CCC[C@H]1C(=O)N[C@@H](CO)C(=O)N[C@@H](CO)C(=O)NC(C)(C)C(=O)N[C@@H](Cc1c[nH]cn1)C(=O)N1CCC[C@H]1C(=O)N1CCC[C@H]1C(=O)NC1(C(=O)N[C@@H](CO)C(N)=O)CC1 [Compound 43] (H-Y[Aib]QGT[αMePhe(2-F)]TSDYSI[αMeL]LDKK([AEEA-AEEA-γGlu-C20 diacid])AQ[Aib]AFIEYLLESHPSS[Aib]HPP[Ac3c]S-NH2) | 441.46 |  | 44.88 | 0.26 | 396.92 | 1.36 | 279.97 | 0.463 | 840.39 |  | 440.00 | 0.01
